Laboratory results published in PMC7795518, “Insights into the Interaction of LVV-Hemorphin-7 with Angiotensin II Type 1 Receptor” (International Journal of Molecular Sciences, 2020).

What was measured:
dopamine 1 receptor = details: allosteric modulator binding preferentially to ICL2; cited from earlier work
Source text: Positive allosteric binding sites of GPCRs have been identified in the past. However, recent studies have […] the potential of positive allosteric modulators in multiple GPCRs using in vitro and in silico approaches. Allosteric binding sites located near the extracellular (EC) face and IC face in different GPCRs have been documented. Allosteric sites near the orthosteric site in GPCRs often block the entry of other ligands. However, this would not be a problem for allosteric ligands that target the IC region. DETQ, an al ...

[1] = biological target: T1, AngII type 1 receptor (AT1R) (Homo sapiens, UniProt P30556); assay: Saturation NanoBRET binding of BODIPY-AngII to Nluc-AT1R in live HEK293FT cells
T1 construct: host or cells: HEK293FT
T1 sequence (P30556 1-359): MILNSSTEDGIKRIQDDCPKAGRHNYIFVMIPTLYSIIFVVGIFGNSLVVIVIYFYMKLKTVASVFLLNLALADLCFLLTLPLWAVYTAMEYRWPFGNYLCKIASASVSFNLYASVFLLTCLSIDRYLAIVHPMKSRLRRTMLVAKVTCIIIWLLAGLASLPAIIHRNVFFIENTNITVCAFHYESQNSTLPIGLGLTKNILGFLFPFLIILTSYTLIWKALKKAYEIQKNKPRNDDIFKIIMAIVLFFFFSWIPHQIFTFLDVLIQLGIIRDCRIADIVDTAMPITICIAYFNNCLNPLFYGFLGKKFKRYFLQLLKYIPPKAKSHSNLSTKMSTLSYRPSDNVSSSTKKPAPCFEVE
Procedure: Figure 1 Saturation binding of BODIPY-angiotensin II (AngII) to AngII type 1 receptor (AT1R) using NanoBRET assay in live HEK293FT cells. HEK293FT cells transiently expressing Nluc-AT1R (NanoBRET donor) were first treated with 10 μM LVV-H7 or vehicle (A) or 1 μM olmesartan medoxomil or vehicle (B) for 20 min at 37 °C. […] Data are mean ± SEM of four (A) or three (B) independent experiments performed in duplicate.
(A) HEK293FT cells transiently expressing Nluc-AT1R (NanoBRET donor) were first treated with 1 μM olmesartan medoxomil or vehicle and then immediately treated with 0, 10, or 100 μM LVV-H7. […] Specific binding curves were generated by subtracting olmesartan medoxomil-treated wells from vehicle-treated wells for each concentration of LVV-H7.
(§1) The NanoLuc-AT1R coding plasmid (Promega, Madison, WI, USA) was used for its transient expression in HEK293FT cells as previously reported.
(§2) Human embryonic kidney (HEK) 293FT cells (Thermo Fisher Scientific) were cultured and maintained at 37 °C, 5% CO2 in complete medium (Dulbecco’s modified Eagle’s medium (DMEM) containing 0.3 mg/mL glutamine, 100 IU/mL penicillin, and 100 μg/mL streptomycin) supplemented with 10% fetal calf serum (FCS) (Bovogen Biologicals, Victoria, Australia) and 400 μg/mL Geneticin (Thermo Fisher Scientific). Transient transfections were carried out 24 h after seeding 600,000 cells/well of a 6-well plate. FuGENE 6 (Promega) transfection reagent was used according to the manufacturer’s instructions. Cells were harvested with 0.05% Trypsin-EDTA 24 h after transfection and seeded into poly-L-lysine (Sigma Aldrich) coated white 96-well plates (Greiner Bio-One, Frickenhausen, Germany) at 80,000 cells/well in phenol red-free DMEM containing 25 mM HEPES, 0.3 mg/mL glutamine, 100 IU/mL penicillin, and 100 μg/mL streptomycin supplemented with 5% FCS.
The NanoLuc substrate furimazine (Promega) was then added to a final concentration of 10 μM and light emission was measured at 37 °C using the filters 450 nm (80-nm bandpass) and >610 nm (longpass) on the LUMIstar or CLARIOstar multilabel plate reader (BMG Labtech (Australia), Mornington, VIC, Australia).
The NanoBRET ratios were determined by dividing the >610 nm (longpass) emission by 450 nm (80-nm bandpass) emission and subtracting the background ratio. Then, the percentage of NanoBRET signals were calculated as described in figure legends. The saturation and kinetic curves were fitted with the appropriate nonlinear regression equations using GraphPad Prism software (San Diego, CA, USA). Statistical analyses were performed with paired one-way ANOVA or paired t-tests as appropriate to determine statistical significance between the different conditions. **** p-value < 0.0001, *** p-value < 0.001, ** p-value < 0.01, * p-value < 0.05, and ns p-value > 0.05.

[2] = biological target: T1, AngII type 1 receptor (AT1R); assay: Real-time NanoBRET kinetics of BODIPY-AngII binding to Nluc-AT1R in live HEK293FT cells; details: 10 μM LVV-H7, 30 min pre-incubation, 100 nM BODIPY-AngII
Procedure: as §1, §2
The NanoBRET ratios were determined by dividing the >610 nm (longpass) emission by 450 nm (80-nm bandpass) emission and subtracting the background ratio. Then, the percentage of NanoBRET signals were calculated as described in figure legends. […]

AT1R = details: HEK293 cells; Gαq/inositol phosphate pathway and ERK1/2 phosphorylation; cited from earlier work
Source text: Hemorphins are endogenous hemoglobin-derived peptides implicated in numerous physiological and pathophysiological situations including spatial learning, inflammation, analgesia, and transient hypotension. The molecular targets of hemorphins comprise the cell-surface G protein-coupled receptor (GPCR) members such as the opioid receptors and also the membrane AngIV receptor [3, 8]. Moreover, hemorphins are also known for their inhibitory effects on the angiotensin-converting enzyme (ACE), a key enzyme in the renin–angiotensin system (RAS). ...

For C[C@H]1c2cccc(C(C)(C)O)c2C[C@H](CO)N1C(=O)Cc1c(Cl)cccc1Cl [DETQ], the “effect on potency of dopamine” value (dopamine 1 receptor) is listed as “significantly enhanced the potency of dopamine”.

In the case of “LVVYPWTQRF [LVV-H7, LVV-hemorphin-7, decapeptide LVV-hemorphin-7 ([…]) (New England Peptide)]”, the “competition for binding with BODIPY-AngII” value ([1]; 10 μM LVV-H7, 20 min at 37 °C before BODIPY-AngII 40 min, four independent experiments in duplicate) is reported as “did not compete for binding with BODIPY-AngII”, the “effect on maximum binding (Bmax) of BODIPY-AngII” value ([1]; LVV-H7 0, 10, 100 μM, saturation binding, n = 6) is reported as “without altering the maximum binding” and the “decrease of AngII's kD” value ([1]; NanoBRET in HEK293FT cells, effect of LVV-H7) is reported as 2.6 fold. For the same compound, the “effect on binding of BODIPY-AngII” value ([1]; increasing LVV-H7 (0, 10, 100 μM), n = 6) was “significantly potentiated the binding of BODIPY-AngII”, the “effect on maximal binding of BODIPY-AngII (kinetics)” value ([2]; n = 4, p < 0.05) was “significantly increased the maximal binding of BODIPY-AngII” and the “effect on binding rate (T1/2) of BODIPY-AngII” value ([2]; n = 4, p > 0.05) was “no effect on the binding rate”. The “modulation of AT1R activity and downstream signaling” value (AT1R) was “positive modulation of its activity and downstream signaling pathways in HEK293 cells”.

With CCCc1nc(C(C)(C)O)c(C(=O)OCc2oc(=O)oc2C)n1Cc1ccc(-c2ccccc2-c2nnn[nH]2)cc1 [olmesartan medoxomil, reference compound] the “displacement of BODIPY-AngII binding” value ([1]; 1 μM olmesartan medoxomil, 20 min at 37 °C before BODIPY-AngII 40 min, three independent experiments in duplicate) was ~ 75%.
